Consider one molecule from publication PMC13164762, “Development and Validation of an LC-MS/MS Method for the Quantitation of JNJ-64619178 (JNJ) in Mouse Plasma: Characterization of In Vitro and In Vivo Pharmacokinetic Properties” (Molecules, 2026).

Data set [1] can be described thus: Microsomal metabolic stability, mouse liver microsomes. In kind it is in vitro ADME. As to the method: (§1) Mouse and human liver microsomes were used for the metabolic stability assay. In brief, the incubation mixture (500 µL) consisted of phosphate-buffered saline (PBS) (100 mM, pH 7.4), microsomal protein (0.5 mg mL^−1), magnesium chloride (10 mM), and NADPH (2 mM). Following pre-incubation of the above reaction mixture for 10 min at 37 °C, the reaction was initiated by spiking JNJ at a final 1 µg mL^−1 concentration. Alongside the test compound, testosterone at a final concentration of 1 µg mL^−1 was incubated as a positive control. All experiments were performed in triplicate. At sampling times of 0, 5, 10, 20, 30, 45, and 60 min, 40 µL samples were collected and quenched with 300 µL ice-chilled acetonitrile supplemented with 10 µL IS. Simultaneously, samples from NADPH-free negative controls were also withdrawn and processed accordingly to confirm any non-enzymatic degradation. Finally, after 1 h of collection, samples were vortexed at 1000 rpm for 1 min and centrifuged at 2200× g for 15 min, and the collected supernatant was analyzed using LC-MS/MS.
(§2) The natural logarithm of the area ratio versus time was plotted, and the slope of the curve was calculated by a linear regression equation to generate the elimination rate constant, k (min^−1). CLint was calculated by the following equation:(2) CLint=0.693/t1/2×Volume of incubation mixture (mL)/microsomal protein (mg)
(§3) CLH,int of JNJ in the mouse and human liver was then estimated from CLint using the scaling factor.(3) CLH,int=CLint×Microsomal protein (mg)/Liver (g)×Liver weight (g)/Body weight (kg)
(§4) Here, 45 and 32 mg of microsomal protein per g of liver weight were applied, and 60 and 25 g of liver weight per kg body weight were used for mouse and human tissue, respectively.
Then, CLH,int was corrected for microsomal binding (CLH,int/fu,inc) and CLH,predict was predicted using the well-stirred model by the following equation:(4) CLH,predict=Q × fu,plasma×CLH,int/fu,inc /Q + fu,plasma×CLH,int/fu,inc
Here, Q is the hepatic blood flow (90 mL min^−1 kg^−1 in mouse), fu,plasma is the fraction unbound in plasma, fu,inc is the fraction unbound in microsomal incubation and CLH,int is included from Equation (3); fu,inc was calculated by adding logP of JNJ (2.3) to the following equation:(5) fu,inc=1/1 + 10^0.53 logP − 1.42
Background: Microsomes from liver hold many membrane-bound enzymes, among them those of drug oxidation.

Data set [2] is described as follows: Rapid equilibrium dialysis (RED) plasma protein binding. In kind it is in vitro ADME. The note with it: for fraction unbound at 5 h: mouse, plasma. As to the method:
A rapid equilibrium dialysis (RED) protein binding assay was performed to determine the protein binding of JNJ in plasma and brain matrix. The RED plate was obtained from Thermo Fisher Scientific (Frederick, MD, USA) for the experiment. An aliquot (200 µL) of JNJ spiked plasma/brain homogenate was poured into the donor chamber, and 400 µL dialysis buffer-PBS containing 100 mM sodium phosphate and 150 mM sodium chloride was added into the receiver compartment of each RED insert in triplicate. The plate was kept in incubation for 5 h on the orbital shaker at 37 °C. Following incubation, 50 µL plasma and buffer aliquots were collected separately, and an equal volume of opposite matrix was added. Collected samples were processed as previously described in Section 4.6 and analyzed using LC-MS/MS. Degree of protein binding (%) was calculated by the following equation:(6) Protein bound (%)=Concentrationdonor cell−Concentrationreceiver cell/Concentrationdonor cell×100
(In general: In equilibrium dialysis free small molecules cross a membrane that holds back macromolecules.)

Data set [3] can be described thus: Microsomal metabolic stability, human liver microsomes. The class given is in vitro ADME. On the procedure:
as §1, §2, §3, §4

Data set [4] can be described thus: Matrix stability study in mouse brain homogenate. In kind it is in vitro ADME. The note with it: 5 µg mL^−1, 37 °C, approximately 5 h, triplicate, read-out: concentration remaining (%). As to the method:
For the matrix stability study, JNJ was spiked into mouse plasma and brain homogenate at a final concentration of 5 µg mL^−1 and incubated at 37 °C for 5 h on a shaking water bath in triplicate. At the specified sampling times, 50 µL aliquots were taken in the collection plate, followed by quenching with 300 µL acetonitrile containing 10 µL IS. After final collection, samples were vortexed at 1000 rpm for 2 min and centrifuged at 2200× g for 10 min, and the collected supernatant was analyzed using LC-MS/MS. Stability was estimated by determining the % remaining after 5 h of incubation using Equation (1).(1) % remaining=Concentration5h/Concentration0h×100

Data set [5] in a line: Parallel artificial membrane permeability assay (PAMPA). The class given is physicochemical. Particulars: 5 µg mL^−1 in PBS, room temperature, read-out: apparent permeability (Papp), PAMPA. On the procedure: A Corning® BioCoat™ Pre-coated PAMPA Plate System, obtained from Corning Life Sciences (Glendale, AZ, USA), was used for the noncell-based permeability assay. As per the manufacturer’s instructions, the PAMPA plate was warmed at room temperature for 30 min to make it ready for use. A JNJ stock solution was prepared in PBS at a concentration of 5 µg mL^−1. Then, 300 µL of that prepared solution was poured into the donor side and 200 µL PBS was added to the acceptor side of each well in triplicate. After incubation for 5 h at room temperature, 50 µL samples were collected separately from the donor and acceptor chamber. Finally, samples were processed following the extraction procedure and analyzed using LC-MS/MS analysis. The apparent permeability coefficient is determined using the following formula:(8) Papp=−ln[1 − Cat/Ceq]/A ∗ 1/Vd + 1/Va∗t where Papp = apparent permeability in cm s^−1, Co = initial compound concentration in donor well (µg mL^−1), Cd(t) = compound concentration in donor well at time t (µg mL^−1), Ca(t) = compound concentration in acceptor well at time t (µg mL^−1), Vd = donor well volume (0.3 mL), Va = acceptor well volume (0.2 mL), A = filter area (0.3 cm^2), and t = incubation time (18,000 s). Ceq is calculated by(9) Ceq=[Cd(t)∗Vd+Ca(t)∗Va] /(Vd+Va)
In general terms: The PAMPA barrier holds no transporters, so it reflects passive diffusion.

Several values for one entry are separate records, joined by “and”; a condition that tells them apart may be missing. Equal values may be shown once. Read-outs that look alike come from different tables or passages of the source.

Regarding `Nc1nc2cc(CC[C@H]3C[C@@H](n4ccc5c(N)ncnc54)[C@H](O)[C@@H]3O)ccc2cc1Br` [JNJ, JNJ-64619178], the “microsomal intrinsic clearance (CLint)” value is 0.02 ± 0.01 mL min^−1 mg^−1 protein in data set [1] (MLM, mean ± SD, n = 3) and 0.01 ± 0.001 mL min^−1 mg^−1 protein in data set [3] (HLM, mean ± SD, n = 3). For the same molecule, the “hepatic intrinsic clearance (CLH,int)” value in data set [1] (MLM, scaled from CLint (45 mg protein/g liver, 60 g liver/kg)) is 41 ± 19 mL min^−1 kg^−1 body weight; in data set [3] (HLM, scaled from CLint (32 mg protein/g liver, 25 g liver/kg)), 7 ± 0.6 mL min^−1 kg^−1 body weight and 7 ± 0.5 mL min^−1 kg^−1 body weight. Also, the “predicted in vivo hepatic clearance (CLH,predict)” value in data set [1] (mice, in vitro scaling, well-stirred model) was 1.6 mL min^−1 kg^−1 body weight and 1.6 ± 0.7 mL min^−1 kg^−1 body weight. Also, the half-life at 1 µg mL^−1 in data set [1] (mouse, liver microsomes, pH 7.4, MLM, mean ± SD, n = 3, read-out: Half-life (t1/2)) was determined as 1.68 ± 0.65 h; in data set [3] (human, liver microsomes, pH 7.4, HLM, mean ± SD, n = 3, read-out: Half-life (t1/2)), 2.47 ± 0.167 h. Further, the remaining at 1 h, 1 µg mL^−1 amounted to 60 ± 12% in data set [1] (mouse, liver microsomes, pH 7.4, MLMs, NADPH, 1 µg mL^−1, n = 3, read-out: percent remaining concentration after 1 h incubation) and 72 ± 2% in data set [3] (human, liver microsomes, pH 7.4, HLMs, NADPH, 1 µg mL^−1, n = 3, read-out: percent remaining concentration after 1 h incubation). Moreover, the “Plasma Protein Binding (%)” value in data set [2] (mouse plasma, RED, 5 h, 37 °C, n = 3) is listed as 97 ± 3%. Also, the fraction unbound at 5 h in data set [2] (RED, 5 h, 37 °C, n = 3, read-out: Plasma Protein Binding (%)) is under 0.06; in data set [2] (read-out: fraction unbound in plasma (fu,plasma)), 0.025. Besides, in data set [4], the remaining at 5 h, 5 µg mL^−1 is about 100%. The Papp at 5 h, 5 µg mL^−1 in data set [5] worked out at 70 ± 40 nm/s.

As a reminder, the Papp is a coefficient for how fast a substance crosses the barrier.
